Measurements: the supplement of paper PMC11061612

What was measured:
Assay in all cases: combination Emax (second highest fraction inhibited in the dose matrix, 72 h); higher = more inhibition; extreme values may be limits of the assay
[1] = system: HO-1-N-1 (Oral Cavity Carcinoma)
Method in brief: (§1)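 After 24 hours at 37°C and 5% CO2 in 1536-well plates, cells in DMEM/F12 or RPMI plus 10% FBS received two-drug dose matrices for 72 hours. Viability came from CellTiter-Glo 2.0 luminescence and was scaled as inhibition, anchored at 0 by vehicle wells and at 1 by blank wells. Combination Emax is taken as the second-highest inhibition in the matrix, and Bliss excess as the observed combination effect less EA + EB − EA·EB, with EA and EB the single-agent effects.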

[2] = system: B-CPAP (Thyroid Gland Carcinoma)
Method in brief: as §1

[3] = system: CaR-1 (Colorectal Carcinoma)
Method in brief: as §1

ES4 (Ewing's Sarcoma) = system: ES4 (Ewing's Sarcoma)
Method in brief: as §1

42-MG-BA (Glioblastoma) = system: 42-MG-BA (Glioblastoma)
Method in brief: as §1

[4] = system: NCI-H2085 (Non-Small Cell Lung Carcinoma)
Method in brief: as §1

[5] = system: UM-UC-3 (Bladder Carcinoma)
Method in brief: as §1

[6] = system: OVCA420 (Ovarian Carcinoma)
Method in brief: as §1

[7] = system: TCCSUP (Bladder Carcinoma)
Method in brief: as §1

[8] = system: RC-K8 (B-Cell Non-Hodgkin's Lymphoma)
Method in brief: as §1

AGS (Gastric Carcinoma) = system: AGS (Gastric Carcinoma)
Method in brief: as §1

[9] = system: NCI-H82 (Small Cell Lung Carcinoma)
Method in brief: as §1

[10] = system: TE-15 (Esophageal Squamous Cell Carcinoma)
Method in brief: as §1

[11] = system: EC-GI-10 (Esophageal Squamous Cell Carcinoma)
Method in brief: as §1

[12] = system: LU-135 (Small Cell Lung Carcinoma)
Method in brief: as §1

[13] = system: DEL (T-Cell Non-Hodgkin's Lymphoma)
Method in brief: as §1

[14] = system: HuP-T4 (Pancreatic Carcinoma)
Method in brief: as §1

[15] = system: COLO-205 (Colorectal Carcinoma)
Method in brief: as §1

NB10 (Neuroblastoma) = system: NB10 (Neuroblastoma)
Method in brief: as §1

[16] = system: CCRF-CEM (T-Lymphoblastic Leukemia)
Method in brief: as §1

Structure (SMILES) | combination Emax [1] | combination Emax [2] | combination Emax [3] | combination Emax (ES4 (Ewing's Sarcoma)) | combination Emax (42-MG-BA (Glioblastoma)) | combination Emax [4] | combination Emax [5] | combination Emax [6] | combination Emax [7] | combination Emax [8] | combination Emax (AGS (Gastric Carcinoma)) | combination Emax [9] | combination Emax [10] | combination Emax [11] | combination Emax [12] | combination Emax [13] | combination Emax [14] | combination Emax [15] | combination Emax (NB10 (Neuroblastoma)) | combination Emax [16]
Cc1c2c(nn1C)CSCc1cc(n(C)n1)CSc1cc(c3ccccc3c1)OCCCc1c(C(=O)O)n(C)c3c-2c(Cl)ccc13 [AZD5991] + CC1(C)CCC(CN2CCN(c3ccc(C(=O)NS(=O)(=O)c4ccc(NCC5CCOCC5)c([N+](=O)[O-])c4)c(Oc4cnc5[nH]ccc5c4)c3)CC2)=C(c2ccc(Cl)cc2)C1 [Venetoclax] (first compound max 1 µM, 7x7, partner max 1 µM) | 0.979 | 0.18 | 0.144 | 0.147 | 0.963 | 0.783 | 0.171 | 0.187 | 0.157 | 0.185 | 0.665 | 0.914 | 0.173 | 0.448 | 0.478 | 1 | 0.409 | 0.135 | 0.481 | 0.787
Cc1c2c(nn1C)CSCc1cc(n(C)n1)CSc1cc(c3ccccc3c1)OCCCc1c(C(=O)O)n(C)c3c-2c(Cl)ccc13 [AZD5991] + CCN(CCO)CCCOc1ccc2c(Nc3cc(CC(=O)Nc4cccc(F)c4)[nH]n3)ncnc2c1 [AZD2811] (first compound max 1 µM, 7x7, partner max 1 µM) | 0.993 | 0.313 | 0.338 | 0.219 | 1 | 0.863 | 0.266 | 0.235 | 0.321 | 0.379 | 0.51 | 0.972 | 0.826 | 0.891 | 0.906 | 1 | 0.624 | 0.948 | 0.405 | 0.999
Cc1c2c(nn1C)CSCc1cc(n(C)n1)CSc1cc(c3ccccc3c1)OCCCc1c(C(=O)O)n(C)c3c-2c(Cl)ccc13 [AZD5991] + CN(C)CCCOc1ccc(-c2ccc3ncc4c(c3c2)n(C2CCOCC2)c(=O)n4C)cn1 [AZD0156] (first compound max 1 µM, 7x7, partner max 1 µM) | 0.771 | 0.237 | 0.186 | 0.238 | 0.986 | 0.219 | 0.211 | 0.191 | 0.162 | 0.314 | 0.255 | 0.941 | 0.188 | 0.747 | 0.286 | 1 | 0.779 | 0.725 | 0.273 | 0.48
Cc1c2c(nn1C)CSCc1cc(n(C)n1)CSc1cc(c3ccccc3c1)OCCCc1c(C(=O)O)n(C)c3c-2c(Cl)ccc13 [AZD5991] + C[C@@H]1COCCN1C2=NC(=NC(=C2)C3(CC3)[S@](=N)(=O)C)C4=C5C=CNC5=NC=C4 [AZD6738] (first compound max 1 µM, 7x7, partner max 10 µM) | 0.928 | 0.522 | 0.362 | 0.885 | 1 | 0.52 | 0.401 | 0.494 | 0.648 | 0.781 | 0.821 | 0.99 | 0.736 | 0.819 | 0.736 | 1 | 0.51 | 0.511 | 0.86 | 1
Cc1c2c(nn1C)CSCc1cc(n(C)n1)CSc1cc(c3ccccc3c1)OCCCc1c(C(=O)O)n(C)c3c-2c(Cl)ccc13 [AZD5991] + C[C@@H](Nc1cc(F)cc(F)c1)c1cc(C(=O)N(C)C)cc2c(=O)cc(N3CCOCC3)oc12 [AZD8186] (first compound max 1 µM, 7x7, partner max 3 µM) | 0.933 | 0.227 | 0.174 | 0.305 | 0.963 | 0.691 | 0.311 | 0.282 | 0.227 | 0.2 | 0.246 | 0.905 | 0.223 | 0.559 | 0.417 | 1 | 0.442 | 0.14 | 0.179 | 0.27
Cc1c2c(nn1C)CSCc1cc(n(C)n1)CSc1cc(c3ccccc3c1)OCCCc1c(C(=O)O)n(C)c3c-2c(Cl)ccc13 [AZD5991] + Cc1cc2ncnn2cc1Nc1ncc2c(n1)n(C1CCOCC1)c(=O)n2C [AZD7648] (first compound max 1 µM, 7x7, partner max 10 µM) | 0.794 | 0.365 | 0.277 | 0.229 | 0.988 | 0.244 | 0.226 | 0.201 | 0.25 | 0.425 | 0.233 | 0.927 | 0.235 | 0.564 | 0.279 | 1 | 0.325 | 0.298 | 0.258 | 0.52
NC1(C(=O)N[C@@H](CCO)c2ccc(Cl)cc2)CCN(c2ncnc3[nH]ccc23)CC1 [Capivasertib] + CC(=O)c1c(C)c2cnc(Nc3ccc(N4CCNCC4)cn3)nc2n(C2CCCC2)c1=O [Palbociclib] (first compound max 10 µM, 7x7, partner max 10 µM) | 0.635 | 0.523 | 0.436 | 0.412 | 0.639 | 0.295 | 0.491 | 0.412 | 0.317 | 0.435 | 0.697 | 0.836 | 0.568 | 0.665 | 0.452 | 0.892 | 0.305 | 0.587 | 0.369 | 0.798
NC1(C(=O)N[C@@H](CCO)c2ccc(Cl)cc2)CCN(c2ncnc3[nH]ccc23)CC1 [Capivasertib] + CC(C)n1c(=O)n(C)c2cnc3cc(F)c(-c4ccc(OCCCN5CCCCC5)nc4)cc3c21 [AZD1390] (first compound max 10 µM, 7x7, partner max 0.3 µM) | 0.435 | 0.261 | 0.365 | 0.277 | 0.686 | 0.258 | 0.311 | 0.21 | 0.321 | 0.224 | 0.444 | 0.912 | 0.387 | 0.574 | 0.267 | 0.44 | 0.128 | 0.416 | 0.221 | 0.457
NC1(C(=O)N[C@@H](CCO)c2ccc(Cl)cc2)CCN(c2ncnc3[nH]ccc23)CC1 [Capivasertib] + CCN(CCO)CCCOc1ccc2c(Nc3cc(CC(=O)Nc4cccc(F)c4)[nH]n3)ncnc2c1 [AZD2811] (first compound max 10 µM, 7x7, partner max 1 µM) | 0.833 | 0.394 | 0.501 | 0.422 | 0.782 | 0.436 | 0.298 | 0.253 | 0.389 | 0.53 | 0.706 | 0.925 | 0.449 | 0.754 | 0.932 | 0.859 | 0.322 | 0.831 | 0.452 | 1
NC1(C(=O)N[C@@H](CCO)c2ccc(Cl)cc2)CCN(c2ncnc3[nH]ccc23)CC1 [Capivasertib] + COc1nnc2ccc(N3CCC(c4ccc(OCCN5CCN(C)C(=O)[C@H]5C)cc4)CC3)nn12 [AZD5153] (first compound max 10 µM, 7x7, partner max 1 µM) | 0.887 | 0.723 | 0.648 | 0.624 | 0.813 | 0.6 | 0.411 | 0.762 | 0.35 | 0.761 | 0.944 | 0.885 | 0.693 | 0.543 | 0.969 | 0.893 | 0.442 | 0.808 | 0.527 | 0.905
NC1(C(=O)N[C@@H](CCO)c2ccc(Cl)cc2)CCN(c2ncnc3[nH]ccc23)CC1 [Capivasertib] + C[C@@H]1COCCN1C2=NC(=NC(=C2)C3(CC3)[S@](=N)(=O)C)C4=C5C=CNC5=NC=C4 [AZD6738] (first compound max 10 µM, 7x7, partner max 10 µM) | 0.869 | 0.719 | 0.601 | 0.851 | 0.775 | 0.504 | 0.53 | 0.516 | 0.685 | 0.775 | 0.837 | 0.967 | 0.879 | 0.7 | 0.793 | 1 | 0.446 | 0.637 | 0.811 | 0.983
NC1(C(=O)N[C@@H](CCO)c2ccc(Cl)cc2)CCN(c2ncnc3[nH]ccc23)CC1 [Capivasertib] + Cn1cnc2c(F)c(Nc3ccc(Br)cc3Cl)c(C(=O)NOCCO)cc21 [Selumetinib] (first compound max 10 µM, 7x7, partner max 10 µM) | 0.848 | 0.499 | 0.564 | 0.398 | 0.737 | 0.427 | 0.533 | 0.651 | 0.373 | 0.367 | 0.953 | 0.903 | 0.633 | 0.927 | 0.352 | 0.578 | 0.396 | 0.778 | 0.428 | 0.485
